Results taken from patent US4496521A, “Insulin-potentiating peptides” (The Whittier Institute for Diabetes and Endocrinology, priority 1983, dated 1985).

Experiments:
[1] = system: VY-F-1 hybrid yellow mice; experiment: (U-14C)-D-glucose incorporation in tissues of mice after a glucose load; format: in vivo
Procedure: containing an appropriate amount of (U-^14 C)-D-glucose (Amersham Radiochemicals, Arlington Heights, IN) so that about 8×10^5 dpm of radiolabeled glucose was given per mouse. Sixty minutes after administration of the mixture, the mice were sacrificed and fragments of liver, diaphragm, and adipose tissue were quickly excised and weighed in a torsion balance. The pieces were placed in vials and digested for 2 hr at 55° C. in 1 molar KOH. After cooling to room temperature, the scintillation liquid was added to the vials. Radioactivity was measured the next day, and an average efficiency of 60% was measured using the internal standard method. Samples of blood were collected at the desired time by intraorbital puncture. Glucose content in the chilled plasma was determined in triplicates by the glucose oxidase method. Blood concentration of radioactive glucose was determined using 20 μl of plasma. Glucose incorporation (GI), expressed in arbitrary units, was calculated by the following equation for the various tissues: [formula] The specific activity of plasma glucose is defined as disintegrations per minute of radioactivity×1000 per 100 μl plasma, divided by milligrams of glucose per 100 ml. of plasma. Statistical significance was determined by 1-way analysis of variance and Duncan's multiple range t-test. Yellow (A^vy /A) and agouti (A/a) virgin (BALB/c×VY)F-1 hybrid female mice were produced by mating BALB/[…] females by […] males. The mice were housed 3 per 7"×5"×11" polypropylene cage with pine shavings as bedding and fed Wayne Lab Blox (Allied Mills, Inc.) 10% fat diet and tap water ad libitum. Ambient temperature was about 22±1° C., and a 12 hr light cycle was maintained. […] Whereas the effect upon the incorporation of glucose in the diaphragm was of lesser magnitude, it is possible that the values represent the maximal rate of glucose utilization by this muscle. […] Further testing was carried out on other mice to show the effect of insulin on the utilization of glucose in similar mice. Because the animals were obese and a maximal effect was desired, a large amount of hormone (50 milliunits per mouse) were used.

[2] = Plasma glucose in mice given a glucose load (glucose oxidase method); format: in vivo; conditions: for Plasma Glucose 0 min: sample at 0 min; for Plasma Glucose 60 min: sample at 60 min
Procedure: Injections were made intraperitoneally 30 min before administration of a glucose load of 2 mg/g of body weight containing an appropriate amount of (U-^14 C)-D-glucose (Amersham Radiochemicals, Arlington Heights, IN) so that about 8×10^5 dpm of radiolabeled glucose was given per mouse. Sixty minutes after administration of the mixture, the mice were sacrificed and fragments of liver, diaphragm, and adipose tissue were quickly excised and weighed in a torsion balance. The pieces were placed in vials and digested for 2 hr at 55° C. in 1 molar KOH. After cooling to room temperature, the scintillation liquid was added to the vials. Radioactivity was measured the next day, and an average efficiency of 60% was measured using the internal standard method. Samples of blood were collected at the desired time by intraorbital puncture. Glucose content in the chilled plasma was determined in triplicates by the glucose oxidase method. Blood concentration of radioactive glucose was determined using 20 μl of plasma. Glucose incorporation (GI), expressed in arbitrary units, was calculated by the following equation for the various tissues: [formula]
Further testing was carried out on other mice to show the effect of insulin on the utilization of glucose in similar mice. Because the animals were obese and a maximal effect was desired, a large amount of hormone (50 milliunits per mouse) were used.

[3] = system: adipose tissue from hypophysectomized rats; experiment: Stimulation of glucose oxidation in adipose tissue from hypophysectomized rats; format: cell-based; conditions: for ability to stimulate glucose oxidation in adipose tissue: native peptides at concentrations up to 50 μg per ml
Text: Biochem., 11, 559-570. The detailed extraction procedure actually employed is set forth in "Human Growth Hormone Peptide 1-43: Isolation from Pituitary Glands", Singh et al., J. Protein Chem., (in press) (1983).

[4] = Hypoglycemic activity of insulin when the peptide is given together with insulin; format: in vivo
[5] = mice; Frigeri et al., Endocrine Society Abstract #88; cited from earlier work
[6] = Table I, increase versus saline, 50 μg, 30 min before glucose
[7] = Table IA, increase versus saline, 50 μg, 30 min before glucose
[8] = Group B: insulin 50 mU per mouse 30 min before glucose
[9] = Group B: insulin 50 mU per mouse 30 min before glucose, listed as insulin
[10] = Group C: insulin 50 mU per mouse 5 min before glucose load
[11] = Group C: insulin 50 mU per mouse 5 min before glucose load, listed as insulin

## CC[C@H](C)[C@H](NC(=O)[C@H](Cc1ccc(O)cc1)NC(=O)[C@H](C)NC(=O)[C@H](CCC(=O)O)NC(=O)[C@H](CCC(=O)O)NC(=O)[C@H](Cc1ccccc1)NC(=O)[C@H](CCC(=O)O)NC(=O)[C@H](CCC(N)=O)NC(=O)[C@H](Cc1ccc(O)cc1)NC(=O)[C@@H](NC(=O)[C@H](CC(=O)O)NC(=O)[C@H](Cc1ccccc1)NC(=O)[C@H](C)NC(=O)[C@H](CC(C)C)NC(=O)[C@H](CCC(N)=O)NC(=O)[C@H](Cc1c[nH]cn1)NC(=O)[C@H](CC(C)C)NC(=O)[C@H](CCCNC(=N)N)NC(=O)[C@H](Cc1c[nH]cn1)NC(=O)[C@H](C)NC(=O)[C@H](CCCNC(=N)N)NC(=O)[C@H](CC(C)C)NC(=O)[C@H](CCSC)NC(=O)[C@H](C)NC(=O)[C@H](CC(N)=O)NC(=O)[C@H](CC(=O)O)NC(=O)[C@H](Cc1ccccc1)NC(=O)[C@H](CC(C)C)NC(=O)[C@H](CCCNC(=N)N)NC(=O)[C@H](CO)NC(=O)[C@H](CC(C)C)NC(=O)[C@@H]1CCCN1C(=O)[C@@H](NC(=O)[C@@H](NC(=O)[C@@H]1CCCN1C(=O)[C@@H](N)Cc1ccccc1)[C@@H](C)O)[C@@H](C)CC)[C@@H](C)O)C(=O)N1CCC[C@H]1C(=O)N[C@@H](CCCCN)C(=O)N[C@@H](CCC(=O)O)C(=O)N[C@@H](CCC(N)=O)C(=O)N[C@@H](CCCCN)C(=O)N[C@@H](Cc1ccc(O)cc1)C(=O)N[C@@H](CO)C(=O)O [hGH(1-43), H--Phe--Pro--Thr--Ile--Pro--Leu--Ser--Arg--Leu--Phe--Asp--Asn--Ala--Met--Leu--Arg--Ala--His--Arg--Leu--His--Gln--Leu--Ala--Phe--Asp--Thr--Tyr--Gln--Glu--Phe--Glu--Glu--Ala--Tyr--Ile--Pro--Lys--Glu--Gln--Lys--Tyr--Ser--OH]
[1]; Table I, 50 μg intraperitoneally 30 min before glucose load, Mean ± SEM
  Glucose Incorporation Diaphragm: 52.0 arbitrary units/g of tissue
[1]; Table I, 50 μg intraperitoneally 30 min before glucose load, tissue 60 min after glucose, Mean ± SEM
  Glucose Incorporation Liver: 135.9 arbitrary units/g of tissue
[1]; [6]
  Glucose Incorporation Adipose Tissue (%): 63%
  Glucose Incorporation Diaphragm (%): 17%
[1]; Table IA, 50 μg 30 min before glucose load, Mean ± SEM
  Glucose Incorporation Liver: 115.2 ± 16 arbitrary units/g of tissue
[1]; [7]
  Glucose Incorporation Liver (%): 35%
[2]; after administration of hGH(1-43)
  change of plasma glucose after administration of the peptide: no significant decrease
[3]; in vitro
  stimulation of in vitro glucose oxidation in adipose tissue: does not stimulate
[3]
  ability to stimulate glucose oxidation in adipose tissue: inactive
[4]
  hypoglycemic activity of insulin: an increase of its hypoglycemic activity is observed

## GH: purified growth hormone, used as active comparator in the glucose oxidation assay
[3]; purified GH
  level at which glucose oxidation stimulating activity is shown: 0.2 ng per ml

## H-AHRLHQLAFDTYQEFEEAYIPKEQKYS-OH [hGH(17-43), H--Ala--His--Arg--Leu--His--Gln--Leu--Ala--Phe--Asp--Thr--Tyr--Gln--Glu--Phe--Glu--Glu--Ala--Tyr--Ile--Pro--Lys--Glu--Gln--Lys--Tyr--Ser--OH]
[1]; [7]
  Glucose Incorporation Liver (%): ~35%
[3]
  ability to stimulate glucose oxidation in adipose tissue: inactive

## Insulin: hormone which controls storage and oxidation of sugar; given at 50 mU per mouse
[1]; [8]
  Glucose Incorporation Adipose Tissue: 9.1 ± 0.82 arbitrary units/g of tissue
  Glucose Incorporation Diaphragm: 54.4 ± 2.8 arbitrary units/g of tissue
  Glucose Incorporation Liver: 36.6 ± 2.6 arbitrary units/g of tissue
[1]; [9]
  Glucose Incorporation Adipose Tissue: rose
  Glucose Incorporation Diaphragm: rose
  Glucose Incorporation Liver: fell sharply below control levels
[1]; [10]
  Glucose Incorporation Adipose Tissue: 9.0 ± 1.05 arbitrary units/g of tissue
  Glucose Incorporation Diaphragm: 52.2 ± 2.4 arbitrary units/g of tissue
  Glucose Incorporation Liver: 64.4 ± 9.5 arbitrary units/g of tissue
[1]; [11]
  Glucose Incorporation Adipose Tissue: rose to values similar to those observed in the -30 minute treated group
  Glucose Incorporation Diaphragm: rose to values similar to those observed in the -30 minute treated group
  Glucose Incorporation Liver: remained unchanged
[2]; [8]
  Plasma Glucose 0 min: 70 ± 8.3 mg/dL
  Plasma Glucose 60 min: 182 ± 11.8 mg/dL
[2]; [9]
  Plasma Glucose 0 min: dropped sharply
[2]; Group B: insulin 50 mU per mouse 30 min before glucose, sample at -30 min
  Plasma Glucose -30 min: 122 ± 2.8 mg/dL
[2]; [10]
  Plasma Glucose 0 min: 151. ± 9.5 mg/dl
  Plasma Glucose 60 min: 270 ± 31 mg/dL
[2]; Group C: insulin 50 mU per mouse 5 min before glucose load, sample at -5 min
  Plasma Glucose -5 min: 129 ± 6.5 mg/dL

## fragment corresponding to amino acid residues 32-46: fragment corresponding to amino acid residues 32-46 of human GH (literature) (EEAYIPKEQKYSFLQ; UniProt P01241 58-72, looked up, fragment)
[5]
  glucose tolerance: could improve the glucose tolerance
